We go through one molecule from patent US20260337162A1, “TRYPTAMINE COMPOUNDS, COMPOSITIONS, AND METHODS OF USE” (priority 2022, published 2026).

Data set [1] in a line: in vitro. It is filed as in vitro ADME, Male Sprague-Dawley rat. Particulars: rat liver microsomes 0.5 mg/mL, 1 mM NADPH, test compound 1 μM, pH 7.4, 37° C.; read-out: RLM, t1/2. The method, then:
Male Sprague-Dawley rat liver microsomes were purchased from XenoTech. The reaction mixture, minus NADPH, was prepared as described below. The test compound was added into the reaction mixture at a final concentration of 1 μM. The control compound, testosterone, was run simultaneously with the test compound in a separate reaction. The reaction mixture (without cofactor) was equilibrated in a shaking water bath at 37° C. for 5 minutes. The reaction was initiated by the addition of the cofactor, and the mixture was incubated in a shaking water bath at 37° C. Aliquots (150 μL) were withdrawn at 0, 5, 10, 20, 30, 60, and 120 minutes. Test compound and testosterone samples were immediately combined with 150 μL of ice-cold acetonitrile (ACN) containing 0.1% formic acid and internal standard to terminate the reaction. The samples were then mixed and centrifuged to precipitate proteins. All samples were assayed by LC-MS/MS using electrospray ionization. The peak area response ratio (PARR) of analyte to internal standard at each time point was compared to the PARR at time 0 to determine the percent remaining at each time point. Half-lives were calculated using GraphPad software, fitting to a single-phase exponential decay equation.
On the technique in general: Liver microsomes are vesicles of endoplasmic reticulum, rich in cytochrome P450 enzymes.

Data set [2] deals with recombinant human MAO-A (Homo sapiens, UniProt P21397). Put plainly: in vitro. Format: in vitro ADME. The settings on record: role: substrate, hrMAO-A 0.02 mg/mL, test compound 1 μM, pH 7.4, 37° C. As to the method:
hrMAO-A and MAO control were purchased from XenoTech. The reaction mixture was prepared as described below. The test compound was added into the reaction mixture at a final concentration of 1 μM. The positive control, kynuramine (25 μM), was run simultaneously with the test compound in a separate reaction. The reaction mixture (without test compounds or kynuramine) was equilibrated in a shaking water bath at 37° C. for 5 minutes. The reaction was initiated by the addition of the test compound or kynuramine, and the mixture was incubated in a shaking water bath at 37° C. Aliquots (150 μL) of the test compound reaction mixture were withdrawn at 0, 5, 10, 20, 30,60, and 120 minutes. Aliquots (150 μL) of the positive control reaction mixture were withdrawn at 0 and 30 minutes. Test compound and kynuramine samples were immediately combined with 150 AL of ice-cold 100% acetonitrile containing 0.1% formic acid and internal standard (0.2 μM metoprolol) to terminate the reaction. The samples were then mixed and centrifuged to precipitate proteins. All samples were assayed by LC-MS/MS. The peak area response ratio (PARR) of analyte to internal standard at each time point was compared to the PARR at time 0 to determine the percent remaining at each time point. Half-lives were calculated using GraphPad software, fitting to a single-phase exponential decay equation.

For data set [3], the target named is T1, human serotonin 5-HT2A receptor (Homo sapiens, UniProt P28223).
T1 construct: host or cells: HEK293 (ATCC CRL-1573)
Put plainly: Radioligand ([3H]LSD) competition binding, 5-HT2A receptor. Particulars: in words; up to 10 μM for partial competition. As to the method: Binding affinity (Ki) and functional potency and efficacy (EC50 and EMAX) values of the compounds were measured.
Radioligand competition binding was performed as previously described (Saraf, T. S., Felsing, D. E., Armstrong, J. L., Booth, R. G., and Canal, C. E., 2021, Evaluation of lorcaserin as an anticonvulsant in juvenile Fmr1 knockout mice, Epilepsy Res 175, 106677), with minor modifications, using human cloned 5-HT2A receptors. Plasmids encoding human serotonin 5-HT2A receptor cDNA were procured from the cDNA Resource Center. Human embryonic kidney cells (HEK293, ATCC CRL-1573) were grown in a cell incubator in 100 mm dishes with antibiotic-free Dulbecco's modified Eagle's medium containing 10% fetal bovine serum. Cells were transfected at ~85% confluency with 5-15 μg cDNA using TransIT-2020 reagent (Mirus Bio, Madison, Wisconsin). After approximately 48 hours, cell membrane was collected via centrifugation. For all experiments, serotonin (5-HT) hydrochloride was used as a positive control, and mianserin hydrochloride (10 μM) was used to define non-specific binding. Each cell membrane homogenate expressing 5-HT2A receptors was incubated at room temperature in 96-well plates with [^3H] […] Following equilibration, each sample was filtered rapidly under vacuum through fiberglass filters presoaked in a buffer and washed by vacuum several times with an ice-cold buffer. Filters were soaked with scintillation fluid and counts per minute were detected using photodetectors (Microbeta Scintillation Counter). […] Data shown are the results from all experiments combined. As is known, G protein-coupled receptors, including the 5-HT2A receptor, can exist in multiple conformations, and ligands, typically agonist ligands, have unique affinities for these conformations of the receptor (Kenakin, T. Theoretical Aspects of GPCR-Ligand Complex Pharmacology, Chem. Rev. 2017, 117, 1, 4-20). […] However, for simplicity reasons, affinity of these compounds are reported herein as fitted to the single-site model. The data point for −10 samples is total specific binding (no compound present), and −4 was interpolated to complete the binding curves to 0 specific binding.

Each structure is given as a SMILES string.

Chain of recombinant human MAO-A (P21397 whole entry): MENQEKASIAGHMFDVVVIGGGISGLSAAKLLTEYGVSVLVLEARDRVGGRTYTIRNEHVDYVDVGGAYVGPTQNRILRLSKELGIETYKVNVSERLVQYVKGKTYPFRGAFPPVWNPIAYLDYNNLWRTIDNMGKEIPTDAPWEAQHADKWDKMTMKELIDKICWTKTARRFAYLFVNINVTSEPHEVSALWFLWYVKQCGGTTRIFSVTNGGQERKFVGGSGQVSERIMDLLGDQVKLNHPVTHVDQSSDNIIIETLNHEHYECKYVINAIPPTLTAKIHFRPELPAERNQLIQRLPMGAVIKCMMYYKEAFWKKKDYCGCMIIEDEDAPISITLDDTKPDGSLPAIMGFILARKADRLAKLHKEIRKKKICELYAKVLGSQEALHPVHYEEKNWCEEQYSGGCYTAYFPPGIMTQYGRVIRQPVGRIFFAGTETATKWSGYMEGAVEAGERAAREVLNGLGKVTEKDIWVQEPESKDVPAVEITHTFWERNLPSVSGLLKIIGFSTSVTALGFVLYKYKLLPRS
T1 sequence (P28223 whole entry): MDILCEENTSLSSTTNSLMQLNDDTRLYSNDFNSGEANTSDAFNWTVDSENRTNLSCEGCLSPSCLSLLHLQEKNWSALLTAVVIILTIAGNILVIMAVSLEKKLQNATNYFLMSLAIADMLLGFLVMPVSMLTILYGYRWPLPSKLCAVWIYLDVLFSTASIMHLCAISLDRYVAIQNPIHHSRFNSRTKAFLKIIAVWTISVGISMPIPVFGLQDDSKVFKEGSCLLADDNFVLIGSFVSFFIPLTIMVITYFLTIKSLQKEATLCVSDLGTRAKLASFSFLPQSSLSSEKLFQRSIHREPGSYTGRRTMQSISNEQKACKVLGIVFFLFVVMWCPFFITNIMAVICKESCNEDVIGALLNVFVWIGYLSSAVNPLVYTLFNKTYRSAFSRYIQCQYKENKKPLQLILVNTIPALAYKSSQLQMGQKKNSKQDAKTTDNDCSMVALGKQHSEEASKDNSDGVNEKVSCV

For the molecule `FC(F)(F)CNCCc1c[nH]c2ccccc12` [II-20, N-(2-(1H-indol-3-yl)ethyl)-2,2,2-trifluoroethan-1-amine], the values for the half-life at 1 µM in data set [1] and in data set [2] were 7.63 min and more than 120 min, respectively. Moreover, the “competition for [3H]LSD-labeled 5-HT2A receptors” value in data set [3] was “only partial competition”.
